Read-outs that look alike come from different tables or passages of the source.
Tests used:
[1] = for Percent Uptake (%) Aorta / Percent Uptake (%) Brain / Percent Uptake (%) Cardiac / Percent Uptake (%) Liver / Percent Uptake (%) Portal Vein / Percent Uptake (%) Posterior Vena Cava / Percent Uptake (%) Spleen: pre-treatment = 100.0
Excerpt: Animals used in this study were six (6) male New Zealand white rabbits obtained from UCD. At the time of initiation, the rabbits were adult in age and weighed approximately 2.69±0.06 kg. The animals were housed separately in cages and fed a cholesterol enriched diet (CED) (TestDiet®—Richmond, Ind.) dry laboratory diet. Filtered tap water was provided ad labium. The animals were acclimated for a minimum of 7 days prior to the start of the study.
The study design comprised putting the rabbits on a CED for 5 weeks prior to the carotid overstretch procedure. At week 5, the carotid overstretch procedure was performed along with anticoagulant therapy (described below). The rabbits were then placed back on the CED with the anticoagulant therapy for an additional two (2) weeks. The rabbits were then anesthetized and Computer Tomography (CT) studies were performed. An iodinated nanoparticle, PH-50, having a mean diameter of 282 nm and a concentration of 15% (w/v) was evaluated in intact male rabbits with an average weight of 2.69±0.06 kg. Six (6) mL/kg of PH-50 was infused over ninety (90) minutes intravenously (IV) via an ear vein. The rabbits were then euthanized and necropsied after the 8 hour CT study.
The CED diet consisted of Purina® 5321 (a standard high-quality rabbit chow that is widely available) supplemented with 2% cholesterol, 5% coconut oil and 0.5% sodium cholate. The CED was formulated by and purchased from TestDiet® (Richmond, Ind.).
The carotid overstretch procedure was performed as follows: Rabbits were pretreated with an appropriate anticoagulant (heparin) prior to the procedure, and maintained on aspirin (20 mg/kg) for 14 days after the procedure. On the day of the procedure, the rabbits were boxed down and ventilated appropriately. The left carotid artery was exposed using standard techniques known in the art. A small puncture was made distal to the site to be overstretched, and a balloon catheter was placed in the artery. The vessel diameter was estimated from direct visualization. The balloon overstretch injury was performed using balloon diameters 30% greater than the baseline arterial diameter at the target areas three inflations of the balloon at approximately 6 atmospheric pressure for 30 seconds each, with a one-minute interval between inflations. Afterwards, the catheter was withdrawn and the rabbits allowed to recover for 14 days prior to the administration of PH-50. The animals were maintained on the CED and aspirin therapy during the 14-day recovery period. Fourteen (14) days following the overstretch procedure, the rabbits were anesthetized and maintained under anesthesia during PH-50 infusion and the CT scan procedures. […] In addition, whole body CT scans were made at contiguous 5 mm slices (at pretreatment, 4 hours and 8 hour studies).
The computer tomography (CT) imaging was performed with a GE® Hi-Speed Computed Tomography Scanner (Milwaukee, Wis.). The CT images were stored as DICOM3 images in GE® optical disks, CD-Rom. The parameter for CT imaging were 1 mm contiguous slices at 120 kvp, 1.5 seconds at 150 mA. CT scans of the entire rabbit were performed (from rostral nasal area to pelvis at specified times).

atherosclerotic plaques = assay: Correlation of CT/Faxitron images with histopathology (Histopathology Correlation Scale); type: in vivo, New Zealand white rabbits; parameters: key to HCS score, renal images: 0=no correlation; 5=direct correlation
Excerpt: The primary focus of this study was to study the potential uptake by atherosclerotic plaques of the compound PH-50. The spatial resolution of the CT scanner used in these experiments was approximately 0.15 mm and determination of plaque formation and PH-50 uptake were correlated with histopathology. The timetable for the schedule of CT studies for rabbit numbers 3081 and 3086 are outlined in Table 8.
All sets of data were carefully harvested, analyzed and then correlated with histopathology. Images were collected, labeled as either “carotid”, “Lung”, “Spleen”, “Liver”, “Cardiac”, “Renal” or “Faxitron images of the carotids,” and then graded according to a Histopathology Correlation Scale (HCS), where 0=no correlation and 5=direct correlation.

[2] = Rabbit No. 3081, 18 mL/90 min IV infusion (900 mg/kg), 255 min
[3] = Rabbit No. 3081, 18 mL/90 min IV infusion (900 mg/kg), 495 min
[4] = Rabbit No. 3086, 18 mL/90 min IV infusion (900 mg/kg), 250 min
[5] = Rabbit No. 3086, 18 mL/90 min IV infusion (900 mg/kg), 480 min

## CCOC(=O)CCCCCOC(=O)c1c(I)c(NC(C)=O)c(I)c(NC(C)=O)c1I [PH-50, 6-ethoxy-6-oxohexy-3,5-bis(acetylamino)-2,4,6-triiodobenzoate]
[1]; [2]
  Hounsfield Units (HU) Aorta: 56.5 HU
  Hounsfield Units (HU) Brain: 49.1 HU
  Hounsfield Units (HU) Cardiac: 136.2 HU
  Hounsfield Units (HU) Liver: 169.3 HU
  Hounsfield Units (HU) Portal Vein: 56.4 HU
  Hounsfield Units (HU) Posterior Vena Cava: 95.3 HU
  Hounsfield Units (HU) Spleen: 449.8 HU
[1]; [3]
  Hounsfield Units (HU) Aorta: 89.3 HU
  Hounsfield Units (HU) Brain: 36.8 HU
  Hounsfield Units (HU) Cardiac: 138.8 HU
  Hounsfield Units (HU) Liver: 110.6 HU
  Hounsfield Units (HU) Portal Vein: 55.4 HU
  Hounsfield Units (HU) Posterior Vena Cava: 87.8 HU
  Hounsfield Units (HU) Spleen: 351.2 HU
[1]; Rabbit No. 3081, 255 min
  Percent Uptake (%) Aorta: 84.0%
  Percent Uptake (%) Brain: 164.2%
  Percent Uptake (%) Cardiac: 383.3%
  Percent Uptake (%) Liver: 383.9%
  Percent Uptake (%) Portal Vein: 128.5%
  Percent Uptake (%) Posterior Vena Cava: 141.0%
  Percent Uptake (%) Spleen: 510.6%
[1]; Rabbit No. 3081, 495 min
  Percent Uptake (%) Aorta: 132.7%
  Percent Uptake (%) Brain: 123.1%
  Percent Uptake (%) Cardiac: 250.8%
  Percent Uptake (%) Liver: 250.8%
  Percent Uptake (%) Portal Vein: 126.2%
  Percent Uptake (%) Posterior Vena Cava: 129.9%
  Percent Uptake (%) Spleen: 398.6%
[1]; [4]
  Hounsfield Units (HU) Aorta: 64.0 HU
  Hounsfield Units (HU) Brain: 31.3 HU
  Hounsfield Units (HU) Cardiac: 220.2 HU
  Hounsfield Units (HU) Liver: 189.4 HU
  Hounsfield Units (HU) Portal Vein: 54.5 HU
  Hounsfield Units (HU) Posterior Vena Cava: 96.5 HU
  Hounsfield Units (HU) Spleen: 786.6 HU
[1]; [5]
  Hounsfield Units (HU) Aorta: 24.1 HU
  Hounsfield Units (HU) Brain: 34.7 HU
  Hounsfield Units (HU) Cardiac: 200.3 HU
  Hounsfield Units (HU) Liver: 98.2 HU
  Hounsfield Units (HU) Portal Vein: 28.1 HU
  Hounsfield Units (HU) Posterior Vena Cava: 58.6 HU
  Hounsfield Units (HU) Spleen: 228.5 HU
[1]; Rabbit No. 3086, 250 min
  Percent Uptake (%) Aorta: 186.6%
  Percent Uptake (%) Brain: 81.3%
  Percent Uptake (%) Cardiac: 320.1%
  Percent Uptake (%) Liver: 384.2%
  Percent Uptake (%) Portal Vein: 122.7%
  Percent Uptake (%) Posterior Vena Cava: 204.9%
  Percent Uptake (%) Spleen: 792.9%
[1]; Rabbit No. 3086, 480 min
  Percent Uptake (%) Aorta: 70.3%
  Percent Uptake (%) Brain: 90.1%
  Percent Uptake (%) Cardiac: 291.1%
  Percent Uptake (%) Liver: 199.2%
  Percent Uptake (%) Portal Vein: 63.3%
  Percent Uptake (%) Posterior Vena Cava: 124.4%
  Percent Uptake (%) Spleen: 230.3%
[1]; anesthetized rabbits, 6 mL/kg IV over 90 min
  adverse reactions during the infusion: No adverse reactions
[1]; anesthetized rabbits, during infusion of 6 mL/kg IV over 90 min
  blood pressure or heart rate: no increase
Atherosclerotic plaques; CT with histopathology, cholesterol-fed rabbits
  uptake by atherosclerotic plaques: taken up by atherosclerotic plaques in the heart and lung
Atherosclerotic plaques; left carotid of rabbit no. 3086
  HCS score, carotid images: 2
Atherosclerotic plaques; mid region of the left carotid artery of rabbit no. 3086
  HCS score, Faxitron images: 3
Atherosclerotic plaques; plaques in the coronary arteries and myocardium of rabbit no. 3086, 4 and 8 hours post-injection
  HCS score, cardiac images: 4
Atherosclerotic plaques; renal artery of rabbit no. 3086, area not submitted for histopathology
  HCS score, renal images: 0
Atherosclerotic plaques; small arterioles of the liver of rabbit no. 3086, 4 hours post-injection
  HCS score, liver images: 3
Atherosclerotic plaques; small arterioles of the lung, 4 hours post-injection
  HCS score, lung images: 4
Atherosclerotic plaques; small arterioles of the spleen of rabbit no. 3086, 4 hours post-injection
  HCS score, spleen images: 4
